Results as given in patent publication US12780800B1, “Triazole-pyridinyl substituted azacyclohexyl acetic acid compounds as LPA receptor antagonists” (Viva Star Biosciences Limited, priority 2021, dated 2022).

Target: T1, LPA1 (Homo sapiens, UniProt Q92633)
T1 construct: ProLink (PK) beta-galactosidase enzyme-fragment tag; host or cells: CHO-K1
Test: LPA1 calcium flux assay (LPA1 functional antagonist assay)
Type: cell-based
Conditions: PathHunter CHO-K1 EDG2 β-Arrestin cell line; calcium indicator dye; stimulated with EC80 concentration of LPA; FLIPR Tetra
Procedure: Following overnight culture, cells were loaded with calcium indicator dye from the HitHunter Calcium No WashPLUS Assay kit (Eurofins DiscoverX Corporation, Cat #93-0091) for 45 minutes at 37° C. […] After compound addition, assay plates were equilibrated to room temperature for 30 minutes. […] IC50 values were determined by Chemical and Biological Information System from ChemInnovation Software, Inc. The compounds of this invention were tested for their activity to inhibit LPA1 as determined in an LPA1 functional antagonist assay as described herein.

T1 sequence (Q92633 whole entry, the tested form may be a part): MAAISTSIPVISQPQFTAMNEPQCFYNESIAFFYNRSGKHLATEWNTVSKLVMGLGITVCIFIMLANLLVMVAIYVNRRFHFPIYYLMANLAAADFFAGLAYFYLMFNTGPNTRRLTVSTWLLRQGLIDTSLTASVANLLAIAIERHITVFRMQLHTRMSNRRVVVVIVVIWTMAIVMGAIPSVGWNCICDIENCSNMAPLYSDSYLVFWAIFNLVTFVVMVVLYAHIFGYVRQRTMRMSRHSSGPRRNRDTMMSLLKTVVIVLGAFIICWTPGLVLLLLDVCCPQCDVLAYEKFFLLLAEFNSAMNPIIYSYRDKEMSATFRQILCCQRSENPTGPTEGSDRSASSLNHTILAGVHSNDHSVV

IC50 | SMILES
< 100 nM | CCc1nc(-c2nnn(C)c2CNc2nccc(C3CCC3)n2)ccc1CN1CC(C(=O)O)CC(F)(F)C1 (single isomer, unassigned) [Example 162, (S) or (R)-1-((6-(5-(((4-cyclobutylpyrimidin-2-yl)amino)methyl)-1-methyl-1H-1,2,3-triazol-4-yl)-2-ethylpyridin-3-yl)methyl)-5,5-difluoropiperidine-3-carboxylic acid]
100 to 500 nM | Cc1nc(-c2nnn(C)c2CN2C[C@H](CC3CC3)N(C)C2=O)ccc1N1C[C@@H](CC(=O)O)CC(F)(F)C1 [Example 63, 2-((S)-1-(6-(5-(((S)-4-(cyclopropylmethyl)-3-methyl-2-oxoimidazolidin-1-yl)methyl)-1-methyl-1H-1,2,3-triazol-4-yl)-2-methylpyridin-3-yl)-5,5-difluoropiperidin-3-yl)acetic acid]
> 5000 nM | CCCN(C)C(=O)OCc1c(-c2ccc(CN3CC(C(=O)O)CC(F)(F)C3)c(CC)n2)nnn1C (single isomer, unassigned) [Example 164, 1-((2-ethyl-6-(1-methyl-5-(((methyl(propyl)carbamoyl)oxy)methyl)-1H-1,2,3-triazol-4-yl)pyridin-3-yl)methyl)-5,5-difluoropiperidine-3-carboxylic acid]
100 to 500 nM | CCc1nc(-c2nnn(C)c2COc2nccc(C3CCC3)n2)cc(F)c1N1CCCC(CC(=O)O)C1 (stereo not shown) [Example 88, 2-(1-(6-(5-(((4-cyclobutylpyrimidin-2-yl)oxy)methyl)-1-methyl-1H-1,2,3-triazol-4-yl)-2-ethyl-4-fluoropyridin-3-yl)piperidin-3-yl)acetic acid]
100 to 500 nM | CCc1nc(-c2nnn(C)c2Cn2cc(CC(C)C)ccc2=O)ccc1CN1CC(C(=O)O)CC(F)(F)C1 (single isomer, unassigned) [Example 154, (S) or (R)-1-((2-ethyl-6-(5-((5-isobutyl-2-oxopyridin-1(2H)-yl)methyl)-1-methyl-1H-1,2,3-triazol-4-yl)pyridin-3-yl)methyl)-5,5-difluoropiperidine-3-carboxylic acid]
< 100 nM | CCc1nc(-c2nnn(C)c2COc2noc(CC3CC3)n2)ccc1N1C[C@@H](CC(=O)O)CC(F)(F)C1 [Example 116, (S)-2-(1-(6-(5-(((5-(cyclopropylmethyl)-1,2,4-oxadiazol-3-yl)oxy)methyl)-1-methyl-1H-1,2,3-triazol-4-yl)-2-ethylpyridin-3-yl)-5,5-difluoropiperidin-3-yl)acetic acid]
< 100 nM | CCc1nc(-c2cnn(C)c2COc2cc(-n3cccn3)ncn2)ccc1N1CCC[C@H](CC(=O)O)C1 [Example 90, (R)-2-(1-(6-(5-(((6-(1H-pyrazol-1-yl)pyrimidin-4-yl)oxy)methyl)-1-methyl-1H-pyrazol-4-yl)-2-ethylpyridin-3-yl)piperidin-3-yl)acetic acid]
< 100 nM | Cn1nnc(-c2ccc(N3CCC[C@H](CC(=O)O)C3)c(C(F)F)n2)c1Cn1nncc1CC1CC1 [Example 168, (R)-2-(1-(6-(5-((5-(cyclopropylmethyl)-1H-1,2,3-triazol-1-yl)methyl)-1-methyl-1H-1,2,3-triazol-4-yl)-2-(difluoromethyl)pyridin-3-yl)piperidin-3-yl)acetic acid]
> 5000 nM | Cc1nc(-c2nnn(C)c2CN2CCN(CC3CC3)C2=O)ccc1N1CC(CC(=O)O)CC(F)(F)C1 (stereo in doubt) [Example 70, (R)-2-(1-(6-(5-((3-(cyclopropylmethyl)-2-oxoimidazolidin-1-yl)methyl)-1-methyl-1H-1,2,3-triazol-4-yl)-2-methylpyridin-3-yl)-5,5-difluoropiperidin-3-yl)acetic acid]
< 100 nM | Cc1nc(-c2nnn(C)c2COc2nccc(C3CCC3)n2)ccc1N1CCC[C@H](CC(=O)O)C1 [Example 84, (R)-2-(1-(6-(5-(((4-cyclobutylpyrimidin-2-yl)oxy)methyl)-1-methyl-1H-1,2,3-triazol-4-yl)-2-methylpyridin-3-yl)piperidin-3-yl)acetic acid]
< 100 nM | CCc1nc(-c2nnn(C)c2COc2nccc(C3CCC3)n2)ccc1N1CCOC(CC(=O)O)C1 (stereo not shown) [Example 171, 2-(4-(6-(5-(((4-cyclobutylpyrimidin-2-yl)oxy)methyl)-1-methyl-1H-1,2,3-triazol-4-yl)-2-ethylpyridin-3-yl)morpholin-2-yl)acetic acid]
< 100 nM | CCc1nc(-c2nnn(C)c2COc2nnn(CC3CC3)n2)ccc1N1C[C@@H](CC(=O)O)CC(F)(F)C1 [Example 125, (S)-2-(1-(6-(5-(((2-(cyclopropylmethyl)-2H-tetrazol-5-yl)oxy)methyl)-1-methyl-1H-1,2,3-triazol-4-yl)-2-ethylpyridin-3-yl)-5,5-difluoropiperidin-3-yl)acetic acid]
> 5000 nM | CCCN(C)C(=O)OCc1c(-c2ccc(CN3CCOC(C(=O)O)C3)c(C)n2)nnn1C (stereo not shown) [Example 166, 4-((2-methyl-6-(1-methyl-5-(((methyl (propyl)carbamoyl)oxy)methyl)-1H-1,2,3-triazol-4-yl)pyridin-3-yl)methyl)morpholine-2-carboxylic acid]
> 5000 nM | CCc1nc(-c2nnn(C)c2CNc2noc(C3CC3)n2)ccc1N1CC(CC(=O)O)CC(F)(F)C1 (stereo in doubt) [Example 115, (R)-2-(1-(6-(5-(((5-cyclopropyl-1,2,4-oxadiazol-3-yl)amino)methyl)-1-methyl-1H-1,2,3-triazol-4-yl)-2-ethylpyridin-3-yl)-5,5-difluoropiperidin-3-yl)acetic acid]

Further lines, the compound ahead of its results:

SMILES | IC50
CCCc1ccc(=O)n(Cc2c(-c3ccc(N4CCC[C@H](CC(=O)O)C4)c(CC)n3)nnn2C)c1 [Example 22, (R)-2-(1-(2-ethyl-6-(1-methyl-5-((2-oxo-5-propylpyridin-1(2H)-yl)methyl)-1H-1,2,3-triazol-4-yl)pyridin-3-yl)piperidin-3-yl)acetic acid] | 100 to 500 nM
CCCc1ccc(=O)n(Cc2c(-c3ccc(N4CC(CC(=O)O)CCC4=O)c(CC)n3)nnn2C)c1 (single isomer, unassigned) [Example 55, (S) or (R)-2-(1-(2-ethyl-6-(1-methyl-5-((2-oxo-5-propylpyridin-1(2H)-yl)methyl)-1H-1,2,3-triazol-4-yl)pyridin-3-yl)-6-oxopiperidin-3-yl)acetic acid] | > 5000 nM
CCCc1ccc(=O)n(Cc2c(-c3ccc(N4C[C@@H](CC(=O)O)CC(F)(F)C4)c(C)n3)nnn2C)n1 [Example 34, (S)-2-(5,5-difluoro-1-(2-methyl-6-(1-methyl-5-((6-oxo-3-propylpyridazin-1(6H)-yl)methyl)-1H-1,2,3-triazol-4-yl)pyridin-3-yl)piperidin-3-yl)acetic acid] | 500 to 5000 nM
CCc1nc(-c2nnn(C)c2Cn2cc(-n3cccn3)ccc2=O)ccc1N1C[C@@H](CC(=O)O)CC(F)(F)C1 [Example 28, (S)-2-(1-(2-ethyl-6-(1-methyl-5-((2-oxo-5-(1H-pyrazol-1-yl)pyridin-1 (2H)-y)methyl)-1H-1,2,3-triazol-4-yl)pyridin-3-yl)-5,5-difluoropiperidin-3-yl)acetic acid] | 500 to 5000 nM
CCCc1ccc(=O)n(Cc2c(-c3ccc(N4C[C@@H](CC(=O)O)CC(F)(F)C4)c(CC)n3)nnn2C)c1 [Example 6, (S)-2-(1-(2-ethyl-6-(1-methyl-5-((2-oxo-5-propylpyridin-1(2H)-yl)methyl)-1 H-1,2,3-triazol-4-yl)pyridin-3-yl)-5,5-difluoropiperidin-3-yl)acetic acid] | < 100 nM
CCOc1ccc(=O)n(Cc2c(-c3ccc(N4C[C@@H](CC(=O)O)CC(F)(F)C4)c(CC)n3)nnn2C)c1 [Example 26, (S)-2-(1-(6-(5-((5-ethoxy-2-oxopyridin-1(2H)-yl)methyl)-1-methyl-1H-1,2,3-triazol-4-yl)-2-ethylpyridin-3-yl)-5,5-difluoropiperidin-3-yl)acetic acid] | 100 to 500 nM
CCCOc1ccc(=O)n(Cc2c(-c3ccc(N4C[C@@H](CC(=O)O)CC(F)(F)C4)c(CC)n3)nnn2C)c1 [Example 25, (S)-2-(1-(2-ethyl-6-(1-methyl-5-((2-oxo-5-propoxypyridin-1 (2H)-yl)methyl)-1H-1,2,3-triazol-4-yl)pyridin-3-yl)-5,5-difluoropiperidin-3-yl)acetic acid] | 100 to 500 nM
Cn1nnc(-c2ccc(N3CCC[C@H](CC(=O)O)C3)c(C(F)(F)F)n2)c1Cn1cc(C2CC2)ccc1=O [Example 59, (R)-2-(1-(6-(5-((5-cyclopropyl-2-oxopyridin-1(2H)-yl)methyl)-1-methyl-1H-1,2,3-triazol-4-yl)-2-(trifluoromethyl)pyridin-3-yl)piperidin-3-yl)acetic acid] | < 100 nM
CCc1nc(-c2nnn(C)c2Cn2cc(C)c(C3CC3)cc2=O)ccc1N1C[C@@H](CC(=O)O)CC(F)(F)C1 [Example 19, (S)-2-(1-(6-(5-((4-cyclopropyl-5-methyl-2-oxopyridin-1(2H)-yl)methyl)-1-methyl-1H-1,2,3-triazol-4-yl)-2-ethylpyridin-3-yl)-5,5-difluoropiperidin-3-yl)acetic acid] | > 5000 nM
CCCc1ccc(=O)n(Cc2c(-c3ccc(N4CCC[C@H](CC(=O)O)C4)c(C#N)n3)nnn2C)c1 [Example 50, (R)-2-(1-(2-cyano-6-(1-methyl-5-((2-oxo-5-propylpyridin-1(2H)-yl)methyl)-1H-1,2,3-triazol-4-yl)pyridin-3-yl)piperidin-3-yl)acetic acid] | > 5000 nM
CCCc1ccc(=O)n(Cc2c(-c3cnc(N4CCCC(CC(=O)O)C4)cn3)nnn2C)c1 (stereo not shown) [Example 57, 2-(1-(5-(1-methyl-5-((2-oxo-5-propylpyridin-1(2H)-yl)methyl)-1H-1,2,3-triazol-4-yl)pyrazin-2-yl)piperidin-3-yl)acetic acid] | > 5000 nM
